Values of other authors, collected in US20080138383A1, “COMPOSITIONS AND METHODS FOR TREATING SEIZURES” (priority 2006, published 2008).
Where two headings read alike, the source gives them in different places.

Assays:
[1] = in vivo

In the case of O=C1CN=C(c2ccccc2)c2cc(Cl)ccc2N1 [desmethyldiazepam], the “activity relative to the parent drug” value (main active metabolite versus diazepam) is listed as “somewhat less active than the parent drug”.
For O=C1Nc2ccc(Cl)cc2C(c2ccccc2Cl)=NC1O (centres unmarked) [lorazepam], the onset of action (after intramuscular administration) is listed as “up to 1 hour”, the onset of action (after intravenous administration) is listed as “several minutes” and the “dose equivalent to 5 mg of diazepam” value (estimates) is listed as “approximately 0.5 mg”.
In the case of Cc1ncc2n1-c1ccc(Cl)cc1C(c1ccccc1F)=NC2 [midazolam], the elimination half-life [1] is given as 1.5 to 3.5 h.
